Data reported in patent publication US12036224B2, “Formulations, methods, kits, and dosage forms for treating atopic dermatitis and for improved stability of an active pharmaceutical ingredient” (Libertas Bio, Inc., priority 2017, dated 2024).
Converted amounts (≈) assume the structure as drawn. “Also recorded” adds a separate entry of the source.

Columns and labels:
[1] = HCl solubility profile in organic solvents; assay type: physicochemical; details: organic solvent or mixture
From the text: (§1) Analytical studies for 2-(1-(4-((4-(4-hydroxypiperidin-1-yl)phenyl)amino)-5-oxo-5,6-dihydropyrimido[4,5-d]pyridazin-2-yl)piperidin-4-yl)acetonitrile are provided below in Tables 1-3: Table 1 provides the results of an HCl pH dependent solubility profile study, Table 2 provides the results of an HCl solubility profile in organic solvents, and Table 3 provides the results of an HCl stress study.

[2] = test system: subjects with moderate-to severe atopic dermatitis; test: Phase 1b study in atopic dermatitis: efficacy (EASI, IGA, pruritus NRS); assay type: in vivo, human; details: for EASI50 / EASI75: once daily, after 4 weeks; for average decrease in EASI / average decrease in Pruritis (Itch) Numeric Rating Scale (NRS): week 4
Method: The study conducted was a randomized, double-blind, placebo-controlled, multicenter, sequential dose escalation study in subjects with moderate-to severe atopic dermatitis. The study included a screening period (up to 30 days) and a treatment period for 4 weeks with a 14 day follow up period that concluded with an end-of-study visit. Three sequential cohorts of 20, 40 and 80 mg QD were evaluated. At each dose level a total of 12 subjects were enrolled with 9 subjects receiving Compound 1, and 3 subjects receiving matching placebos.
(§2) Upon signing the informed consent, the each subject underwent screening assessments from Day −30 to Day −1 prior to study drug administration. On Day 1 (baseline), eligible subjects were randomized, subjected to the Day 1/baseline assessments and received Compound 1 at 20, 40 or 80 mg or placebo, dependent on cohort and randomization schedule. At this visit, PK/PD samples were collected at predose and up to 8 hours (or up to 12 hours at selected sites). Subjects were monitored in clinic for 2 hours following the first study drug administration. Subjects returned to the clinic on Day 2 for PK and PD samples (24 hours post dose).
(§3) Pre-dose PK and PD samples were collected on Days 8 and 29 (last day of treatment). On Day 15, PK/PD samples were also collected at pre-dose and up to 8 hours post-dose and subjects returned on Day 16 for PK and PD samples (24 hours post dose). Subjects came in for additional safety assessments on Days 8, 22 and 29, as well as at the end of the follow up period (Day 43). Disease assessments were conducted on Days 1, Day 15 and Day 29.
Compound 1 was administered orally at doses of 20, 40 and 80 mg qd. Compound 1 was made available in 5-mg, 20-mg, and 50-mg strength tablets.
Assessment of efficacy variables: Preliminary efficacy was assessed by changes in the following assessments between Day 1 (baseline) and Days 15 and 29: IGA, EASI, 5-D Pruritus scale, Pruritus Numeric Rating Scale, % BSA involvement of AD, and skin microbiome analysis
The IGA is an assessment scale used in clinical studies to determine severity of AD and clinical response to treatment based on a 5-point scale ranging from 0 (clear) to 4 (severe) (18). The IGA score was assessed at screening, day 1/baseline (pre-dose), and days 15, 29, 43 or early termination.
The Pruritus NRS is a single-question assessment tool that is used to assess the patient's worst itch as a result of AD in the […]. Subjects complete the patient recorded outcome once daily. Patient compliance on the pruritus NRS is followed at each clinic visit. Subjects were instructed on daily reporting at the Baseline visit and are queried for compliance at every clinic visit. Subjects completed the rating scale daily through the last study visit using the scale provided below.
The Eczema Area and Severity Index (EASI) is a validated measure used in clinical practice and clinical trials to assess the severity and extent of AD. Four AD disease characteristics are assessed for severity by the investigator or designee on a scale of “0” (None) through “3” (severe). In addition, the area of AD involvement is assessed as a percentage by body area of head, trunk, upper and lower extremities and converted to a score of 0 to 6. Subjects were subjected to this assessment at the following visits: screening, day 1/baseline (pre-dose), and days 15, 29, 43 or early termination.
Methods: Patients were randomized 1:3 placebo or Compound 1 at 20, 40 or 80 mg once daily for 4 weeks (n=36). Inclusion criteria were Eczema Area and Severity Index (EASI) ≥16, body surface area (BSA) involvement ≥10% and an Investigator's Global Assessment (IGA) of ≥3 at baseline visit. Study objectives included safety/tolerability, efficacy and pharmacokinetic measurements. No concomitant administration of topical corticosteroids or other immunosuppressants was permitted during or prior to study.

[3] = Phase 1b study in atopic dermatitis: pharmacokinetics; assay type: in vivo, human
Method: as §2, §3
Assessment of PK variables: The following PK parameters for Compound 1 were derived from the concentration-time data of Compound 1 after the first and Day 15 dose administration in the fasted state, as data allowed: Cmax, tmax, AUC0-∞, AUC0-t, AUC0-24, λz, t1/2, CL/F and Vd/F

[4] = Phase 1/2 trial in solid tumors and hematologic malignancies: pharmacokinetics; assay type: in vivo, human
Method: (§4) Methods: Phase 1/2 clinical trial in patients with solid tumors and hematologic malignancies evaluates escalating oral doses of the formulation disclosed herein at 10, 20, 30, 40, 50, 75 and 100 mg BID and 80 and 120 mg QD mg (NCT02440685). Phase 1 allows patients with solid tumors or hematologic malignancies; Phase 2 allows only patients with diffuse large B-Cell lymphoma (DLBCL), follicular lymphoma (FL) or mantle cell lymphoma (MCL). Endpoints include safety, tolerability, pharmacokinetics, serum markers of inflammation, and response using RECIST or Lugano Classification System, […]

HCl stress study = assay type: physicochemical
From the text: as §1

[5] = test system: patients with solid tumors and hematologic malignancies; test: Phase 1/2 trial in solid tumors and hematologic malignancies: response and serum markers; assay type: in vivo, human
Method: as §4

[6] = Day 1 to Day 29, 20, 40 and 80 mg
[7] = human, plasma, oral, day 15, 20, 40 and 80 mg

Work on `N#CCC1CCN(c2nc(Nc3ccc(N4CCC(O)CC4)cc3)c3c(=O)[nH]ncc3n2)CC1` [Compound 1, 2-(1-(4-((4-(4-hydroxypiperidin-1-yl)phenyl)amino)-5-oxo-5,6-dihydropyrimido[4,5-d]pyridazin-2-yl)piperidin-4-yl)acetonitrile] yielded a solubility ([1]; EtOH) of 5000 µg/mL (≈ 10.8 mM), a solubility ([1]; IPA) of 462 µg/mL (≈ 1 mM) and a solubility ([1]; MeOH) of 4440 µg/mL (≈ 9.63 mM). The EASI50 ([2]; 20 mg cohort) was 29%, the EASI75 ([2]; 20 mg cohort) was 0% and the “average decrease in EASI” value ([2]; 20 mg cohort) was 21%. The “average decrease in Pruritis (Itch) Numeric Rating Scale (NRS)” value (“average decrease in Pruritis” below) ([2]; 20 mg cohort) was 15%, the EASI50 ([2]; 40 mg cohort) was 100% and the EASI75 ([2]; 40 mg cohort) was 63%. The “average decrease in EASI” value ([2]; 40 mg cohort) was 79%, the “average decrease in Pruritis” value ([2]; 40 mg cohort) was 47% and the reduction in itch ([2]; 80 mg cohort, Day 2) was ~45%. The EASI50 ([2]; 80 mg cohort) was 88%, the EASI75 ([2]; 80 mg cohort) was 50% and the “average decrease in EASI” value ([2]; 80 mg cohort) was 70%. For the same molecule, the “average decrease in Pruritis” value ([2]; 80 mg cohort) was 71%, the “overall efficacy in moderate to severe AD (in words)” value ([2]; 4 weeks) was “clear efficacy; also recorded: robust activity in EASI after 4 weeks” and the “change in pruritus / patient reported itch (in words)” value ([2]; 20, 40 and 80 mg once daily) was “early decrease in pruritis; also recorded: significant reduction in patient reported itch was observed as early as 2nd day of treatment; also recorded: early improvements in pruritus”. For the same molecule, the “IGA assessments, subjects reaching 0-1” value ([2]; 40 and 80 mg cohorts) was “up to 38%”, the “subjects reached EASI90” value [2, 6] was 3 subjects and the “subjects with 100% clearance” value [2, 6] was 2 subjects. For the same molecule, the “Dose dependence of exposure (Cmax, AUC), in words” value ([3]; 20, 40 and 80 mg once daily) was “dose-dependent Cmax and AUC; also recorded: dose-dependent exposure”, the “Inter- and intra-individual variability of PK, in words” value ([3]; 20, 40 and 80 mg once daily) was “low inter- and intra-individual variability; also recorded: minimum individual variability and accumulation” and the Tmax [3, 7] was 2 to 4 h. For the same molecule, the half-life [3, 7] was 10 to 14 h, the “systemic exposure (in words)” value ([4]; 80 mg QD) was “High systemic exposure” and the half-life ([4]; human, in vivo, steady-state, 40 mg BID, oral) was 18 h. The AUC(0-t) ([4]; human, in vivo, steady-state, 40 mg BID, oral, read-out: AUC (0-12 h)) was 6.3 µM·h, the Cmax ([4]; steady-state, 40 mg BID, oral) was 700 nM and the “% API based on Peak Area %” value (HCl stress study; 1N HCl, rt, 24 hr) was 100.00%. The “% API based on Peak Area %” value (HCl stress study; 1N NaOH, rt, 24 hr) was 99.54%, the “% API based on Peak Area %” value (HCl stress study; 3% H2O2, rt, 30 hr) was 83.00% and the “% API based on Peak Area %” value (HCl stress study; 80° C., 24 hr) was 99.93%. For the same molecule, the “% API based on Peak Area %” value (HCl stress study; UV, 23 hr) was 99.80%, the “reduction in target lesions” value ([5]; 3 months, a FL patient (Lugano, 6 prior lines)) was “About 50%” and the “response in a peripheral T-Cell lymphoma patient” value ([5]; after 2 months (Lugano, 2 prior lines)) was “stable disease and reduction of pruritus”. The “CRP, IL-18, MIP1β, VCAM-1, TNFR2 (serum markers of inflammation)” value ([5]; all doses) was “Robust reduction” and the “efficacy in NHL patients (in words)” value ([5]; in vivo) was “Encouraging preliminary evidence of efficacy”.
